For 15 compounds, drug sensitivity score results are on record in the supplement of paper PMC11616607.

The first assay relates to HOSE1C. The assay is described as follows: drug sensitivity score (DSS) from 5-point dose-response viability curve (DSS (area-under-curve based score)); higher = more sensitive (stronger growth inhibition or killing); extreme values may be limits of the assay. The settings on record: exposure time: 72 h; concentration range: 5 concentrations over 10,000-fold range. The essentials:
(§1)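 Ovarian cancer and normal ovarian cell lines were tested in 384-well plates, with drugs dispensed acoustically (Echo 550) in DMSO or water at five concentrations covering a 10,000-fold range. After 1,500 cells per well were added, plates were incubated for 3 days at 37°C and 5% CO2, and viability was read by CellTiter-Glo luminescence on a PHERAstar FS. Breeze software gave a drug sensitivity score for each cell line and drug, where a higher score means greater sensitivity. A value of zero means no response.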
`C[C@H]1CNCCCN1S(=O)(=O)c1cccc2cncc(F)c12` [Ripasudil] gave a drug sensitivity score of 2.
Still for that read-out and setting: next, `C=CC(=O)Nc1cccc(Nc2nc(Nc3ccc(N4CCN(C(C)=O)CC4)cc3OC)ncc2C(F)(F)F)c1` [Rociletinib]: 4.2.
`O=C(CCCCCCNC(=O)c1cnc(N(c2ccccc2)c2ccccc2)nc1)NO` [Rocilinostat] had a drug sensitivity score of 9.3.
`C/C=C1\NC(=O)[C@H]2CSSCC/C=C/[C@H](CC(=O)N[C@H](C(C)C)C(=O)N2)OC(=O)[C@H](C(C)C)NC1=O` [Romidepsin]: the drug sensitivity score came to 39.3.
Same read-out and setting: next, `Cc1nc(C(=O)NCC(=O)O)c(O)c2ccc(Oc3ccccc3)cc12` [Roxadustat]: 0; `CN(C)C[C@@H]1CCn2cc(c3ccccc32)C2=C(C(=O)NC2=O)c2cn(c3ccccc23)CCO1` [Ruboxistaurin]: 6.3.
Still for that read-out and setting: next, `CNCc1ccc(-c2[nH]c3cc(F)cc4c3c2CCNC4=O)cc1` [Rucaparib]: 0.
As to `N#CC[C@H](C1CCCC1)n1cc(-c2ncnc3[nH]ccc23)cn1` [Ruxolitinib], the drug sensitivity score stood at 0.
On the same count and under the same terms, next, `CC(C)N(CCCNC(=O)Nc1ccc(C(C)(C)C)cc1)C[C@H]1O[C@@H](n2cc(Br)c3c(N)ncnc32)[C@H](O)[C@@H]1O` [SGC0946]: 0; `COc1ccc(CCc2nc3cc(-c4c(C)noc4C)ccc3n2C[C@H](C)N2CCOCC2)cc1Cl` [SGC-CBP30]: 11.
In turn, `CN1CCC(CNc2ccc3ncc(-c4cccc(OC(F)(F)F)c4)n3n2)CC1` [SGI-1776] had a drug sensitivity score of 8.
On the same count and under the same terms, next, `CN(CC(=O)N(Cc1ccc(C2CCCCC2)cc1)c1ccc(C(=O)O)cc1)S(=O)(=O)c1c(F)c(F)c(F)c(F)c1F` [SH-4-54]: 7.5.
On the same count and under the same terms, next, `CCc1c2c(nc3ccc(O)cc13)-c1cc3c(c(=O)n1C2)COC(=O)[C@]3(O)CC` [SN-38]: 37.3.
Same read-out and setting: next, `CC(C)(C)c1cnc(CSc2cnc(NC(=O)C3CCNCC3)s2)o1` [SNS-032]: 21.2; `Cc1cc2c(C(=O)NC[C@H](C)c3ccccc3)c(O)c(O)cc2c(O)c1-c1c(C)cc2c(C(=O)NC[C@H](C)c3ccccc3)c(O)c(O)cc2c1O` [Sabutoclax]: 18.

Another assay deals with OVCAR8. Described as above. Conditions: exposure time: 72 h; concentration range: 5 concentrations over 10,000-fold range. The essentials:
as §1
In turn, `C[C@H]1CNCCCN1S(=O)(=O)c1cccc2cncc(F)c12` [Ripasudil] had a drug sensitivity score of 0.
On the same count and under the same terms, next, `C=CC(=O)Nc1cccc(Nc2nc(Nc3ccc(N4CCN(C(C)=O)CC4)cc3OC)ncc2C(F)(F)F)c1` [Rociletinib]: 5.8.
Same read-out and setting: next, `O=C(CCCCCCNC(=O)c1cnc(N(c2ccccc2)c2ccccc2)nc1)NO` [Rocilinostat]: 7.1; `C/C=C1\NC(=O)[C@H]2CSSCC/C=C/[C@H](CC(=O)N[C@H](C(C)C)C(=O)N2)OC(=O)[C@H](C(C)C)NC1=O` [Romidepsin]: 28.1.
On the same count and under the same terms, next, `Cc1nc(C(=O)NCC(=O)O)c(O)c2ccc(Oc3ccccc3)cc12` [Roxadustat]: 0; `CN(C)C[C@@H]1CCn2cc(c3ccccc32)C2=C(C(=O)NC2=O)c2cn(c3ccccc23)CCO1` [Ruboxistaurin]: 6.6.
`CNCc1ccc(-c2[nH]c3cc(F)cc4c3c2CCNC4=O)cc1` [Rucaparib] showed a drug sensitivity score of 1.8.
`N#CC[C@H](C1CCCC1)n1cc(-c2ncnc3[nH]ccc23)cn1` [Ruxolitinib]: the drug sensitivity score came out at 0.1.
The compound `CC(C)N(CCCNC(=O)Nc1ccc(C(C)(C)C)cc1)C[C@H]1O[C@@H](n2cc(Br)c3c(N)ncnc32)[C@H](O)[C@@H]1O` [SGC0946] showed a drug sensitivity score of 0.
Same read-out and setting: next, `COc1ccc(CCc2nc3cc(-c4c(C)noc4C)ccc3n2C[C@H](C)N2CCOCC2)cc1Cl` [SGC-CBP30]: 5.7.
Same read-out and setting: next, `CN1CCC(CNc2ccc3ncc(-c4cccc(OC(F)(F)F)c4)n3n2)CC1` [SGI-1776]: 6; `CN(CC(=O)N(Cc1ccc(C2CCCCC2)cc1)c1ccc(C(=O)O)cc1)S(=O)(=O)c1c(F)c(F)c(F)c(F)c1F` [SH-4-54]: 5.8.
Still for that read-out and setting: next, `CCc1c2c(nc3ccc(O)cc13)-c1cc3c(c(=O)n1C2)COC(=O)[C@]3(O)CC` [SN-38]: 28.6; `CC(C)(C)c1cnc(CSc2cnc(NC(=O)C3CCNCC3)s2)o1` [SNS-032]: 20.
`Cc1cc2c(C(=O)NC[C@H](C)c3ccccc3)c(O)c(O)cc2c(O)c1-c1c(C)cc2c(C(=O)NC[C@H](C)c3ccccc3)c(O)c(O)cc2c1O` [Sabutoclax] came in with a drug sensitivity score of 15.9.

The subject of the next assay is COV318. Described as above. The settings on record: exposure time: 72 h; concentration range: 5 concentrations over 10,000-fold range. The method, boiled down: as §1
Consider `C[C@H]1CNCCCN1S(=O)(=O)c1cccc2cncc(F)c12` [Ripasudil], for which the drug sensitivity score is 0.
With `C=CC(=O)Nc1cccc(Nc2nc(Nc3ccc(N4CCN(C(C)=O)CC4)cc3OC)ncc2C(F)(F)F)c1` [Rociletinib], the drug sensitivity score came to 2.6.
On the same count and under the same terms, next, `O=C(CCCCCCNC(=O)c1cnc(N(c2ccccc2)c2ccccc2)nc1)NO` [Rocilinostat]: 2.7.
On to `C/C=C1\NC(=O)[C@H]2CSSCC/C=C/[C@H](CC(=O)N[C@H](C(C)C)C(=O)N2)OC(=O)[C@H](C(C)C)NC1=O` [Romidepsin], for which the drug sensitivity score worked out at 12.3.
With `Cc1nc(C(=O)NCC(=O)O)c(O)c2ccc(Oc3ccccc3)cc12` [Roxadustat], the drug sensitivity score was 0.
Same read-out and setting: next, `CN(C)C[C@@H]1CCn2cc(c3ccccc32)C2=C(C(=O)NC2=O)c2cn(c3ccccc23)CCO1` [Ruboxistaurin]: 7.7.
On the same count and under the same terms, next, `CNCc1ccc(-c2[nH]c3cc(F)cc4c3c2CCNC4=O)cc1` [Rucaparib]: 0.5.
Still for that read-out and setting: next, `N#CC[C@H](C1CCCC1)n1cc(-c2ncnc3[nH]ccc23)cn1` [Ruxolitinib]: 0; `CC(C)N(CCCNC(=O)Nc1ccc(C(C)(C)C)cc1)C[C@H]1O[C@@H](n2cc(Br)c3c(N)ncnc32)[C@H](O)[C@@H]1O` [SGC0946]: 0.
In turn, `COc1ccc(CCc2nc3cc(-c4c(C)noc4C)ccc3n2C[C@H](C)N2CCOCC2)cc1Cl` [SGC-CBP30] yielded a drug sensitivity score of 3.1.
The same measure, in the same setting: next, `CN1CCC(CNc2ccc3ncc(-c4cccc(OC(F)(F)F)c4)n3n2)CC1` [SGI-1776]: 4.7.
Still for that read-out and setting: next, `CN(CC(=O)N(Cc1ccc(C2CCCCC2)cc1)c1ccc(C(=O)O)cc1)S(=O)(=O)c1c(F)c(F)c(F)c(F)c1F` [SH-4-54]: 5.1; `CCc1c2c(nc3ccc(O)cc13)-c1cc3c(c(=O)n1C2)COC(=O)[C@]3(O)CC` [SN-38]: 13.8.
On the same count and under the same terms, next, `CC(C)(C)c1cnc(CSc2cnc(NC(=O)C3CCNCC3)s2)o1` [SNS-032]: 11.
In the case of `Cc1cc2c(C(=O)NC[C@H](C)c3ccccc3)c(O)c(O)cc2c(O)c1-c1c(C)cc2c(C(=O)NC[C@H](C)c3ccccc3)c(O)c(O)cc2c1O` [Sabutoclax], the drug sensitivity score was determined as 8.8.
